Results from ChEMBL document CHEMBL4376829, “Discovery and biological evaluation of vinylsulfonamide derivatives as highly potent, covalent TEAD autopalmitoylation inhibitors” (Eur J Med Chem, 2019).

Legend:
[1] = molecular target: Inhibitor of nuclear factor kappa-B kinase subunit epsilon (Homo sapiens) (UniProt Q14164); assay: Inhibition of full length recombinant human IKKepsilon at 10 uM using casein as substrate after 40 mins in presence of [gamma33P]ATP by scintillation counting method relative to control
[2] = molecular target: Protein kinase C alpha type (Homo sapiens) (UniProt P17252); assay: Inhibition of full-length recombinant human PKCalpha at 10 uM using histone H1 as substrate after 40 mins by in presence of [gamma33P]ATP by scintillation counting method relative to control
[3] = molecular target: Cyclin-dependent kinase-like 2 (Homo sapiens) (UniProt Q92772); assay: Inhibition of human CDKL2 at 10 uM by radiometric method relative to control
[4] = molecular target: Cyclin-dependent kinase 13/Cyclin-K (Homo sapiens) (UniProt Q14004+O75909); assay: Inhibition of full-length recombinant human CDK13/cyclinK at 10 uM using RSRSRSRSRSRSRSR as substrate after 120 mins by in presence of [gamma33P]ATP by scintillation counting method relative to control; assay type: protein-complex assay
Homo sapiens = species on record: Homo sapiens; assay: Inhibition of recombinant full length human Aurora A I31F mutant at 10 uM using LRRASLG as substrate incubated for 40 mins in presence of [gamma-33P]-ATP by scintillation counting method relative to control

Sequence of Cyclin-dependent kinase 13/Cyclin-K (Homo sapiens) (O75909 whole entry, looked up): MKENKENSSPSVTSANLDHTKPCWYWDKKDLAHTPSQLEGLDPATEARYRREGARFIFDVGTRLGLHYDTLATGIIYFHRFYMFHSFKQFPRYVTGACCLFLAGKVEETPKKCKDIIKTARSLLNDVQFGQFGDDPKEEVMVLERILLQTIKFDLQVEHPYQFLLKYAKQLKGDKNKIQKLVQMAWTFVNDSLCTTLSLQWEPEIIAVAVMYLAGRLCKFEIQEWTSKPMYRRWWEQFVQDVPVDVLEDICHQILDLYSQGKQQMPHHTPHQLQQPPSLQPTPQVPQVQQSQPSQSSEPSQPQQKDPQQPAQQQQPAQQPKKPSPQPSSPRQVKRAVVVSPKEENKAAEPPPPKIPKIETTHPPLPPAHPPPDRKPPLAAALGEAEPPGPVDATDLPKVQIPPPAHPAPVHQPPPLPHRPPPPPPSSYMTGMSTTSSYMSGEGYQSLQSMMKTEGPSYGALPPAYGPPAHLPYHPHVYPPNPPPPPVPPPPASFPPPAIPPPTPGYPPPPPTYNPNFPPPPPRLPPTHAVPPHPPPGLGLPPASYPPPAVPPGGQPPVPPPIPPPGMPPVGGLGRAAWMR
Sequence of Cyclin-dependent kinase 13/Cyclin-K (Homo sapiens) (Q14004 whole entry, looked up): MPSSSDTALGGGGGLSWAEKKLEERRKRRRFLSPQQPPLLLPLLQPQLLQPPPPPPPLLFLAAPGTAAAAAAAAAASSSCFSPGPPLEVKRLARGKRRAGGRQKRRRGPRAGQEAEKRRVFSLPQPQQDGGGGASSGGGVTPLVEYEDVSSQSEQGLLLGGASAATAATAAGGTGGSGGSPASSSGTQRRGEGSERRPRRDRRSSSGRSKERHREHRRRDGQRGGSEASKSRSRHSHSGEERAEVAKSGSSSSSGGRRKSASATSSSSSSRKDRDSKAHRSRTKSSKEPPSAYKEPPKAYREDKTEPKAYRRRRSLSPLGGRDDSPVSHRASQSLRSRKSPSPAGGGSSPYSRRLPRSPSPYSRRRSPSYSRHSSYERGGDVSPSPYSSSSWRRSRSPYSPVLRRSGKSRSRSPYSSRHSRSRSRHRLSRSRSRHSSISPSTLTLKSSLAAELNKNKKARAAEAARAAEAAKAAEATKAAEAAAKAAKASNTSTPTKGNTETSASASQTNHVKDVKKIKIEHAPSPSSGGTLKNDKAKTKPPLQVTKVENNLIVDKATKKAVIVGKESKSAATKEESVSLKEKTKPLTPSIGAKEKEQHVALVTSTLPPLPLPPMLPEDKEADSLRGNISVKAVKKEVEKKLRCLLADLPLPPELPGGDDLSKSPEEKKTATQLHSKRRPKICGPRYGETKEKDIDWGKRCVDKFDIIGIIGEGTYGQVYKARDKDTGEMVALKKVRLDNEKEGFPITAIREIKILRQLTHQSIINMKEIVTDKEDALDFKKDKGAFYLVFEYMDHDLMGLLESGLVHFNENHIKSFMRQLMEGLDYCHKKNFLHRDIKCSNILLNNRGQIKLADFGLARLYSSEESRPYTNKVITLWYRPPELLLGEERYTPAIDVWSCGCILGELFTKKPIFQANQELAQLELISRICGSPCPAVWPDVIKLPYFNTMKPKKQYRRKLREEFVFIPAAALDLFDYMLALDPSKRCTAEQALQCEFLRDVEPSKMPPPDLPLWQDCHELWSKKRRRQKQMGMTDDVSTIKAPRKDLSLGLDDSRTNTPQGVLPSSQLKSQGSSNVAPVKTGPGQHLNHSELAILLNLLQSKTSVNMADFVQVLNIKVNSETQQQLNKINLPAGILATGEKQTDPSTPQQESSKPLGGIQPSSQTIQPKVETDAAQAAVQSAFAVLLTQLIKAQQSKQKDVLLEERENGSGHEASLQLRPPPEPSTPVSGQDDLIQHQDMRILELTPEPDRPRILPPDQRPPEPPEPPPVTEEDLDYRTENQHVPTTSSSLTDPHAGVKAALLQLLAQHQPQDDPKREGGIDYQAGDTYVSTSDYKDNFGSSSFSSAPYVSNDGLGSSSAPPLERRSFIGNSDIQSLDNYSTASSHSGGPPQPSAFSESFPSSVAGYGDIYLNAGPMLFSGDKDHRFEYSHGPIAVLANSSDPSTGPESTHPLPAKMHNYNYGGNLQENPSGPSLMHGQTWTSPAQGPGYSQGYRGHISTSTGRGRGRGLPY
Sequence of Cyclin-dependent kinase-like 2 (Homo sapiens) (Q92772 whole entry): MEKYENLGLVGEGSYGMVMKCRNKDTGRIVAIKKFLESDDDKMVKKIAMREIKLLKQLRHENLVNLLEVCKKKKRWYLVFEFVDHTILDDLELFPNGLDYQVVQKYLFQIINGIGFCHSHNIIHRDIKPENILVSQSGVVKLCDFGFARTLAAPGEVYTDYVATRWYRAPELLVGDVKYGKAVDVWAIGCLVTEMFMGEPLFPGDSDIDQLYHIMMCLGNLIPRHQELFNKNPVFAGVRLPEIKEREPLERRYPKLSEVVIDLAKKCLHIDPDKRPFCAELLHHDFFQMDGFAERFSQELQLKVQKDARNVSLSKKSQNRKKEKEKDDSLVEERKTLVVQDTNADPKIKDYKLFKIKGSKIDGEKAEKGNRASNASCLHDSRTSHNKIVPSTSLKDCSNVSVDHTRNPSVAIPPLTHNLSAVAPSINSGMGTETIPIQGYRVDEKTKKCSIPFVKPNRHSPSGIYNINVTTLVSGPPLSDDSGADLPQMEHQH
Sequence of Inhibitor of nuclear factor kappa-B kinase subunit epsilon (Homo sapiens) (Q14164 whole entry): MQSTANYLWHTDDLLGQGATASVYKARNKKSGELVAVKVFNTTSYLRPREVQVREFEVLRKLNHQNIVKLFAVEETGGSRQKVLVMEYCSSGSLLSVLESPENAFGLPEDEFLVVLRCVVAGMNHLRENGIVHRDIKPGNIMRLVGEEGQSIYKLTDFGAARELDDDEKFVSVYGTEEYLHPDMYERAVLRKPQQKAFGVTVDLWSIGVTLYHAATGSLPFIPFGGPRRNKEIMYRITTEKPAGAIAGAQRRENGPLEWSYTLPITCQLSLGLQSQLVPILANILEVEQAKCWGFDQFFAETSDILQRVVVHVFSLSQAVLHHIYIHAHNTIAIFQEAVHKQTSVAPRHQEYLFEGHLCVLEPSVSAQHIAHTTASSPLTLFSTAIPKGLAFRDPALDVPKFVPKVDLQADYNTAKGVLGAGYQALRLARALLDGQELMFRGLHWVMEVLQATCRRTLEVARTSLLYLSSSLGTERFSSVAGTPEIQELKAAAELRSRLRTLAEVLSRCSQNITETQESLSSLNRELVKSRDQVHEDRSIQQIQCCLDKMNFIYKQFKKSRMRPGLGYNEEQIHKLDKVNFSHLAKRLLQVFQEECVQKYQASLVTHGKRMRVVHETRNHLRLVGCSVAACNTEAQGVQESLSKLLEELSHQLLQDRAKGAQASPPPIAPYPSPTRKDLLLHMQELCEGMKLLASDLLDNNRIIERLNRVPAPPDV

`C=CS(=O)(=O)Nc1ccc(Cc2ccc3ccccc3c2)cc1` showed an inhibition [1] of 5%, an inhibition [2] of 3% and an inhibition [3] of 3%. For the same molecule, the inhibition [4] was 17% and the inhibition (Homo sapiens) was -10%.
